Where two headings read alike, the source gives them in different places.
Biological target: T1, IKK2 (Homo sapiens, UniProt O14920)
T1 construct: made in house; host or cells: insect cells (baculovirus, pFastBac; SF9)
T1 sequence (O14920 1-756): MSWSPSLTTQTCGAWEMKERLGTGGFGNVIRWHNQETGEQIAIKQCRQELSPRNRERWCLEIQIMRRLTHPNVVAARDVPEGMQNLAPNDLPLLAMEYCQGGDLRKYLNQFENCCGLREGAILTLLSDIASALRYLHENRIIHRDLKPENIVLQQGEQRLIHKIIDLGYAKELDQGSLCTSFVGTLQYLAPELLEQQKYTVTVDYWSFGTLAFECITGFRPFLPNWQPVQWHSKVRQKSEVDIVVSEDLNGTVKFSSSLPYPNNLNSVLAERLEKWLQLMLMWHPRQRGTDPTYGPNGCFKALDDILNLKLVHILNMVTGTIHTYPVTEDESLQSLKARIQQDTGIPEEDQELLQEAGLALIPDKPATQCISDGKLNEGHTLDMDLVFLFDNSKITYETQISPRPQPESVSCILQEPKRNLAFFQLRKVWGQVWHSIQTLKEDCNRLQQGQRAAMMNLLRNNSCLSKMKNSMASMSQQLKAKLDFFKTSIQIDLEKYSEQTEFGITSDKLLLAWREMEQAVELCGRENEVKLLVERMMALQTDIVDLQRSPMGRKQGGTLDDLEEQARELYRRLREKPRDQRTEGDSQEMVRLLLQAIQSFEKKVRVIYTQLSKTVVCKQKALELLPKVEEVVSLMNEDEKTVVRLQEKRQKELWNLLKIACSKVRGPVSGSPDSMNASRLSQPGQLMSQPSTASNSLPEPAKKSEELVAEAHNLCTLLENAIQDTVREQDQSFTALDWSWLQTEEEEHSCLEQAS
Assay: IKKβ Resin Enzyme Assay (IKK2 resin)
Assay type: biochemical
Text: cDNAs of human IKK1 and IKK2 were amplified by reverse transcriptase-polymerase chain reaction from human placental RNA (Clonetech). hIKK1 was subcloned into pFastBac HTa (Life Technologies) and expressed as N-terminal His6-tagged fusion protein. The hIKK2 cDNA was amplified using a reverse oligonucleotide primer which incorporated the peptide sequence for a FLAG-epitope tag at the C-terminus of the IKK2 coding region ([…]). The hIKK2:FLAG cDNA was subcloned into the baculovirus vector pFastBac. The rhIKK2 ([…]) mutant was constructed in the same vector used for wild type rhIKK2 using a QuikChange™ mutagenesis kit (Stratagene). Viral stocks of each construct were used to infect insect cells grown in 40 L suspension culture. […] Cell lysates were stored at −80° C. until purification of the recombinant proteins was undertaken as described below.
A 10-liter culture of baculovirus-expressing IKK2 tagged with FLAG peptide was centrifuged and the cell pellet (MOI=0.1 and I=72 hrs) was re-suspended in buffer A. These cells were microfluidized, and centrifuged at 100,000×g for 45 min. Supernatant was passed over a G-25 column equilibrated with Buffer A. Protein peak was collected and incubated with anti-FLAG affinity resin on a rotator overnight in buffer B. The resin was washed in batch with 10–15 bed volumes of buffer C. Washed resin was poured into a column and rhIKK2 homodimer was eluted using 5 bed volumes of buffer B containing FLAG peptide. 5 mM DTT, 0.1% NP-40 and BSA (concentrated to 0.1% in final amount) was added to the eluted enzyme before concentrating in using an Amicon membrane with a molecular weight cut-off of 30 kDa. Enzyme was aliquoted and stored at −80° C.
IKKβ kinase activity was measured using a biotinylated IκBα peptide ([…]32-Gly-Leu-Asp-Ser36-Met-Lys-Asp-Glu-Glu) (American Peptide Co.). […] ATP (Amersham) (about 1×10^5 cpm), 1 μM ATP (Sigma), 1 mM DTT (Sigma), 2 mM MgCl2 (Sigma), 2 mM MnCl2 (Sigma), 10 mM NaF (Sigma), 25 mM Hepes (Sigma) buffer, pH 7.6 and 20 μl enzyme solution and 10 ul inhibitor in a final volume of 50 μl. After incubation at 25° C. for 30 min, 150 μl resin (Dowex anion-exchange resin AG1X8 200–400 mesh) in 900 mM formate, pH 3.0 was added to each well to stop the reaction. Resin was allowed to settle for one hour and 50 ul of supernatant was removed to a Micolite-2 flat bottom plate (Dynex). 150 μl of scintillation fluid (Microscint 40) (Packard) was added to each well. Incorporation of [γ-^33P] ATP was measured using a Top-Count NXT (Packard).

[1] = Table 6, read-out: IKK2 Resin IC 50
[2] = Table 10, read-out: IKK2 Resin IC50
[3] = Table 2, read-out: IKK Resin IC50
[4] = Table 3, read-out: IKK Resin IC50

## NC(=O)c1nn(-c2ccc(F)cc2)c2c1CCc1ccc(NC(=O)c3cccc(N)c3Cl)cc1-2 [Example 229, 8-[(3-amino-2-chlorobenzoyl)amino]-1-(4-fluorophenyl)-4,5-dihydro-1H-benzo[g]indazole-3-carboxamide]
[1]
  IC50: ≤ 1000 nM

## Cc1ccnc(Cl)c1C(=O)Nc1ccc2c(c1)-c1c(c(C(N)=O)nn1-c1cccc(O)c1)CC2 [Example 287, 8-{[(2-chloro-4-methylpyridin-3-yl)carbonyl]amino}-1-(3-hydroxyphenyl)-4,5-dihydro-1H-benzo[g]indazole-3-carboxamide]
[2]
  IC50: ≤ 1000 nM

## CS(=O)(=O)c1ccc(-n2nc(C(N)=O)c3c2-c2cc(NC(=O)c4cccc(Cl)c4N)ccc2CC3)cc1 [Example 118, 8-[(2-amino-3-chlorobenzoyl)amino]-1-[4-(methylsulfonyl)phenyl]-4,5-dihydro-1H-benzo[g]indazole-3-carboxamide]
[3]
  IC50: ≤ 1000 nM

## NC(=O)c1nn(-c2ccc(F)cc2)c2c1CCc1ccc(NC(=O)c3ccc(C(F)(F)F)nc3Cl)cc1-2 [Example 234, 8-({[2-chloro-6-(trifluoromethyl)pyridin-3-yl]carbonyl}amino)-1-(4-fluorophenyl)-4,5-dihydro-1H-benzo[g]indazole-3-carboxamide]
[1]
  IC50: ≤ 1000 nM

## CS(=O)(=O)c1ccc(-n2nc(C(N)=O)c3c2-c2cc(NC(=O)c4ccccc4F)ccc2CC3)cc1 [Example 97, 8-[(2-fluorobenzoyl)amino]-1-[4-(methylsulfonyl)phenyl]-4,5-dihydro-1H-benzo[g]indazole-3-carboxamide]
[3]
  IC50: ≤ 1000 nM

## COc1cc(C(=O)Nc2ccc3c(c2)-c2c(c(C(N)=O)nn2-c2ccc(S(C)(=O)=O)cc2)CC3)c([N+](=O)[O-])cc1OC [Example 150, 8-[(4,5-dimethoxy-2-nitrobenzoyl)amino]-1-[4-(methylsulfonyl)phenyl]-4,5-dihydro-1H-benzo[g]indazole-3-carboxamide]
[4]
  IC50: ≤ 1000 nM

## COc1cc(Cl)c(C(=O)Nc2ccc3c(c2)-c2c(c(C(N)=O)nn2-c2ccc(S(C)(=O)=O)cc2)CC3)cc1OC [Example 131, 8-[(2-chloro-4,5-dimethoxybenzoyl)amino]-1-[4-(methylsulfonyl)phenyl]-4,5-dihydro-1H-benzo[g]indazole-3-carboxamide]
[4]
  IC50: ≤ 1000 nM

## CC1(C)Cc2c(C(N)=O)nn(-c3ccc4c(c3)OCO4)c2-c2cc(NC(=O)c3ccncc3Cl)ccc21 [Example 435, 1-(1,3-benzodioxol-5-yl)-8-[(3-chloroisonicotinoyl)amino]-5,5-dimethyl-4,5-dihydro-1H-benzo[g]indazole-3-carboxamide]
Table 22, read-out: IKK2 Resin IC50
  IC50: ≤ 1000 nM

## NC(=O)c1nn(-c2cccc(O)c2)c2c1CCc1ccc(NC(=O)c3cccnc3Cl)cc1-2 [Example 284, 8-{[(2-chloropyridin-3-yl)carbonyl]amino}-1-(3-hydroxyphenyl)-4,5-dihydro-1H-benzo[g]indazole-3-carboxamide]
[2]
  IC50: ≤ 1000 nM

## CCCS(=O)(=O)c1ccc(-n2nc(C(N)=O)c3c2-c2cc(NC(=O)c4ccccc4Cl)ccc2CC3)cc1 [Example 400, 8-[(2-chlorobenzoyl)amino]-1-[4-(propylsulfonyl)phenyl]-4,5-dihydro-1H-benzo[g]indazole-3-carboxamide]
Table 18, read-out: IKK2 Resin IC50
  IC50: ≤ 1000 nM

## CSc1ccc(Cl)c(C(=O)Nc2ccc3c(c2)-c2c(c(C(N)=O)nn2-c2ccc(F)cc2)CC3)c1 [Example 235, 8-{[2-chloro-5-(methylthio)benzoyl]amino}-1-(4-fluorophenyl)-4,5-dihydro-1H-benzo[g]indazole-3-carboxamide]
[1]
  IC50: ≤ 1000 nM

## NC(=O)c1nn(-c2ccc(C#CCO)cc2)c2c1CCc1ccc(NC(=O)c3cccnc3Cl)cc1-2 [Example 386, 8-{[(2-chloropyridin-3-yl)carbonyl]amino}-1-[4-(3-hydroxyprop-1-ynyl)phenyl]-4,5-dihydro-1H-benzo[g]indazole-3-carboxamide]
Table 17, read-out: IKK2 Resin IC50
  IC50: ≤ 1000 nM

From patent US7186743B2, “Substituted pyrazolyl compounds for the treatment of inflammation” (Pharmacia Corporation, priority 2001, dated 2007)
